Measured values published in patent US20230065158A1, “OXABICYCLOHEPTANES FOR TREATMENT OF SMALL CELL LUNG CANCER” (Lixte Biotechnology, Inc., priority 2021, published 2023).

Columns and labels:
PP2A = biological target: T1, PP2A (Homo sapiens, UniProt P67775); test: PP2A immunoprecipitation Ser/Thr phosphatase activity assay in treated H524 cells; format: cell-based; settings: LB-100 5 μM, 24 h, H524 cells
T1 construct: endogenous in cells; host or cells: H524 (human SCLC) cells
Procedure: FIGS. 1A-IL depict the effects of LB-100 on PP2A-A expression in SCLC tumors and cells. […] A Mann-Whitney U test was used for comparison between the normal and SCLC samples. FIG. 1B: IHC for PP2A was conducted on TMA tissue sections and images were captured at 4× or 20× using a 3D-Histech PANNORAMIC SCAN whole slide scanner (3D-Histech, Budapest, Hungary). […] TMAs were scored in normal (n=24) and tumor (n=79) cores on a scale from 0 (no staining/no protein expression) to 3+(strong staining/high protein expression). FIG. 1C: Summary bar graph of the average PP2A subunit staining. IHC staining intensity of normal and tumor cores. There was a statistically significant difference between normal and tumor tissue (p<0.001). FIG. 1D: In order to compare the expression of PP2A subunits A and C, cell lysates from seven SCLC cell lines and HBEC 3KT (non-malignant cell line) were subjected to western blotting. FIG. 1E: PP2A activity was determined using a serine/threonine phosphatase activity assay (Millipore) after 24 h exposure to cantharidin (10 μM) and LB-100 (5 μM). […] LB-100 alone or in combination with carboplatin inhibited proliferation and colony formation in SCLC cells. The Cell Counting Kit-8 assay detected cell H524 and H69 cell viability. […] FIGS. 1I-1K: Graphs depict the mean+SEM of percent viability for cells (n=3). […]

H146 cells = settings: human, 72 h
Source text: To determine specific cytotoxicity, we used Cell Counting Kit-8 (Dojindo Molecular Technologies, Rockville, Md.) as previously described (50).

H69 cells = test: Glucose uptake assay (glucose oxidase); format: cell-based; settings: LB-100 20 μM, compared with control without cells
Source text: FIGS. 4A-4F depict a reactome pathway analysis of PamGene PTKs and STKs after LB-100 treatment of H524 cells and Biolog phenotype MicroArray. […] Table includes 10 carbon sources affected by LB-100 (n=3). […] P<0.001 (***) for control (untreated cells) vs. LB-100. FIG. 4D: Amplex Red Glucose/Oxidase assay kit was used to measure glucose level in cell culture media. […] Glucose concentration detected in initial medium and counted as 100%. Subtracting final medium level of glucose from initial glucose medium concentration yielded % glucose in the medium with cells (n=3). Effect of LB-100 on MET phosphorylation. FIG. 4E: H524 and H69 cells were treated overnight with LB-100 (H524—5 μM and H69—20 μM) following by stimulation with 100 ng/ml HGF in 10 min. Cells were collected and lysed for WB analysis with pMET and total MET antibody. Pan-actin was used as loading control (n=3). FIG. 4F: H524 cell lysates (control, LB-100, carboplatin and combination (LB-100/carboplatin) were analyzed by western blots to check phosphorylation status of MET at Ser985 and Tyr1234/1235. Actin was used as a loading control (n=3). […]
Glucose consumption was determined by using a colorimetric glucose assay (Invitrogen, Carlsbad, Calif.) following the manufacturer's instructions. […] The uptake of glucose was determined compared with initial glucose concentration in the cell culture medium, which was taken as 100%.

[1] = system: extensive-stage small cell lung carcinoma; settings: first study subject
Source text: The Phase Ib study is a single arm study expected to enroll 18 evaluable patients (maximum 30) entered in groups of 3 at escalating doses of LB-100 using the traditional 3+3 design. […] Each cycle is defined as 3 weeks (21 days). Patients will then proceed to maintenance with LB-100 and atezolizumab. Patients who discontinue study therapy without disease progression will continue to be evaluated for tumor response using RECIST v1.1 (Appendix B) guidelines every 6-8 weeks until disease progression, death, or study closure.
Dose Escalation: The Phase I dose-finding will use a traditional 3+3 to determine the maximum tolerated dose (MTD), based on first cycle DLTs. A maximum of 4 dose levels of LB-100 will be explored. […]
Treatment Overview: This Phase Ib study of LB-100 diluted in 50 mL of normal saline for injection will be administered intravenously in the outpatient clinic over 15 minutes in patients with extensive-stage small cell lung cancer. […] All three patients at each dose level will be assessed for evidence of limiting toxicity through their return visit day 21 (and any delay prior to the start of cycle 2) before the decision is made for dose escalation in the next cohort.

T1 sequence (P67775 whole entry): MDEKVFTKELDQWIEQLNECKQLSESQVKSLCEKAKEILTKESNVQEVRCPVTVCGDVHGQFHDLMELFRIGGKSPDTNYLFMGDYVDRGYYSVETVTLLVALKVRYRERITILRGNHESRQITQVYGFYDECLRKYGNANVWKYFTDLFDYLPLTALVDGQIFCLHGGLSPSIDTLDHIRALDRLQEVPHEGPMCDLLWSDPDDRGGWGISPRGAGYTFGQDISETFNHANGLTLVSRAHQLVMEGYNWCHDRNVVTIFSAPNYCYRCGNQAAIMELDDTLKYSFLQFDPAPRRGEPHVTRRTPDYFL
T1 sequence (P30153 whole entry partner): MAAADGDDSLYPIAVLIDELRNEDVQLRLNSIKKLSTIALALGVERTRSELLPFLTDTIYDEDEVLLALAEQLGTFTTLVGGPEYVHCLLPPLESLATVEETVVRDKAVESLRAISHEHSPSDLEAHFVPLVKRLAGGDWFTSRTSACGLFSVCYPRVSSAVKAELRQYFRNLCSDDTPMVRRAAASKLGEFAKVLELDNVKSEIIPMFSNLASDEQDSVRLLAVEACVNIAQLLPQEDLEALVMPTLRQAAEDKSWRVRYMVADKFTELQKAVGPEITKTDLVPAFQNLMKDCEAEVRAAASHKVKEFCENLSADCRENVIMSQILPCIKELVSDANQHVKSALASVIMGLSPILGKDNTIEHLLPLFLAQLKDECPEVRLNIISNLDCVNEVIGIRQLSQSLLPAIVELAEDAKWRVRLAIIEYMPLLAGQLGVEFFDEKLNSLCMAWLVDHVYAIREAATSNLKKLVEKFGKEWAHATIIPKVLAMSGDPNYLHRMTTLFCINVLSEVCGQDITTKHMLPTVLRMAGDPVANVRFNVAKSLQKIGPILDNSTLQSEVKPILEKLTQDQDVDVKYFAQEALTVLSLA

C[NH+]1CCN(C(=O)C2C(C(=O)O)[C@H]3CC[C@@H]2O3)CC1 (stereo in doubt) [LB-100, 3-[(4-Methylpiperazin-1-yl)carbonyl]-7-oxabicyclo[2.2.1]heptane-2-carboxylic acid]
phosphatase activity inhibited to (PP2A): 65% | IC50 (H146 cells): > 20 µM | reduction of consumption of glucose in media (H69 cells): 65% | partial objective response ([1]; after the 2nd cycle, LB-100 0.83 mg/m2 days 1 & 3 with carboplatin/etoposide/atezolizumab): 47% | decrease in measurable tumor ([1]; following the 4th and last cycle of induction therapy): 58%
